Results on one compound are retold here after patent EP2575807B1, “FORMULATION BASED ON SULPIRIDE AND A SYNERGISTIC HOMEOPATHIC COMPOSITION FOR TREATMENT OF DEPRESSIVE SYNDROME” (Novak, Maja, priority 2010, dated 2011).

For data set [1] the following is noted: cited from earlier work.
Data set [2] deals with women suffering of depressive syndrome. Kind of data set: Controlled study of antidepressant activity, Hamilton rating scale for depression (HAMD test). Format: in vivo. The procedure:
They are divided onto two groups by randomization: • (i) A control group (N = 32) received once-a-day combined (in the same syringe) dose of 20 mg of sulpiride (1; 0.4 mL) diluted with physiological solution (2.0 mL) by subcutaneous injection during three months (90 days).
The duration of administering was three months (90 days; also subcutaneously).
Neurosurg. Psychiatr. […] Psychiatr.
For the 17-item version of HAMD test, scores can range from 0 to 54. […]
The above results were subjected to paired T-test. […] Paired T-test is usually chosen to establish the difference between groups, i.e. their mean values during the Study.
The study was followed by the use of Hamilton rating scale for depression (HAMD test).

As to `CCN1CCCC1CNC(=O)c1cc(S(N)(=O)=O)ccc1OC` (racemic) [sulpiride, (R,S)-(±)-5-(aminosulfonyl)-N-[(1-ethylpyrrolidin-2-yl)methyl]-2-methoxybenzamide], in data set [1], the oral bioavailability is recorded as 25-35%. Moreover, the HAMD stood at 17.34 ± 8.77 in data set [2] (After the Study, once-a-day subcutaneous injection, 20 mg of sulpiride, three months (90 days)) and 18.91 ± 9.19 in data set [2] (Before the Study (baseline), 17-item HAMD score, range 0 to 54). Besides, the “Mean difference (paired T-test, HAMD before vs after the Study)” value in data set [2] (once-a-day subcutaneous injection, 20 mg of sulpiride, 90 days) is on record as 1.60.
